The source of these data is PubChem BioAssay (NCI).

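48-hour exposure; five concentrations; linearly interpolated endpoints. TGI denotes the concentration required for complete inhibition of growth.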 Where a SMILES comes first, the peptide text is derived from it. The star is where a group is joined. Cbz = O=C(OCc1ccccc1)*

What all share (assay): NCI anticancer screen, dose series, 48 h
The subject of experiment [1] is UACC-257 melanoma.
The test system of experiment [2] is EKVX NSCLC.
For experiment [3], the system named is M14 melanoma.
Experiment [4] relates to SK-MEL-28 melanoma.
The test system of experiment [5] is MDA-MB-231 breast.
Experiment [6] has as its system HOP-62 NSCLC.
For experiment [7], the system named is T-47D breast.
Experiment [8] deals with BT-549 breast.
Experiment [9] has as its system HT29 colon.
Experiment [10] relates to SF-539 CNS.
Experiment [11] concerns ACHN renal.
Experiment [12] deals with NCI-H460 lung.
Experiment [13] has as its system OVCAR-8 ovarian.
In experiment [14] the test system is NCI/ADR-RES ovarian.
Experiment [15] deals with SF-268 CNS.
For experiment [16], the system named is SR leukemia.
Experiment [17] relates to IGROV1 ovarian.
Experiment [18] has as its system SF-295 CNS.
For experiment [19], the system named is COLO 205 colon.
Experiment [20] has as its system UACC-62 melanoma.

For the molecule `CCOc1cc(C2SCC(=O)N2c2ccc3c(c2)Oc2c(Cl)c4c(c(Cl)c2=N3)Oc2cc(N3C(=O)CSC3c3ccc(O)c(OCC)c3)ccc2N=4)ccc1O` (stereo not given), the TGI is over 100 µM in [1]; over 100 µM in experiment [2]; 63.8 µM in experiment [3]; over 100 µM in experiment [4]; over 100 µM in experiment [5]; over 100 µM in [6]. Moreover, the TGI in [7] is over 100 µM; in [8], over 100 µM; in [9] it was over 100 µM; in experiment [10], 28.2 µM; in [11] it was 73.4 µM; in [12] it was over 100 µM. Moreover, the TGI in experiment [13], in experiment [14], in experiment [15], in experiment [16], in [17] and in experiment [18] was over 100 µM throughout.
With `C=CCc1cccc2cc(C(=O)Nc3ccc(C)cc3)c(=N)oc12`, the TGI in experiment [1], in [2], in experiment [3], in [4], in [5] and in [6] was over 100 µM each time. Further, the TGI in experiment [19], in experiment [7], in experiment [8], in [9], in experiment [20] and in experiment [11] was over 100 µM throughout. In addition, the TGI in experiment [12], in experiment [13], in experiment [14], in [15], in [16] and in [17] was over 100 µM each time.
For the molecule `CCO[C@H]1O[C@@H]2OC3(C)CCC4[C@H](C)CCC([C@H]1C)[C@]42OO3` (stereo not given in full), the TGI is over 100 µM in experiment [2]; over 100 µM in experiment [3]; over 100 µM in [4]; over 100 µM in experiment [5]; over 100 µM in [6]; 25.5 µM in [19]. Also, the TGI in experiment [7], in experiment [8], in experiment [9], in [10], in experiment [20] and in experiment [11] was over 100 µM throughout. For the same molecule, the TGI in experiment [12] was over 100 µM; in experiment [13], 51.7 µM; in experiment [14] it was over 100 µM; in [15], over 100 µM; in [16] it was over 100 µM; in [17] it was over 100 µM. The TGI in experiment [18] is over 100 µM.
For the molecule `CC(=O)C1C(=O)C(C(C)=O)C2C3C=CC(C3)C12` (stereo not given), the TGI in experiment [1], in experiment [4], in experiment [5], in [6], in experiment [19] and in [7] was over 100 µM each time. The TGI in [8], in experiment [9], in experiment [10], in [20], in experiment [11] and in experiment [12] was over 100 µM each time. Moreover, the TGI in experiment [13], in experiment [14], in [15], in experiment [16], in [17] and in [18] was over 100 µM throughout.
On to `Cc1cc(C#N)c(Nc2ccc(F)cc2[N+](=O)[O-])s1`, for which the TGI in experiment [1] was over 100 µM; in [2] it was over 100 µM; in [3], over 100 µM; in experiment [4], over 100 µM; in [5], 68.8 µM; in [6], over 100 µM. Moreover, the TGI in experiment [19], in [7], in experiment [8], in experiment [10], in [20] and in experiment [11] was over 100 µM each time. Further, the TGI in experiment [12], in experiment [13], in experiment [14], in experiment [15], in [16] and in experiment [18] was over 100 µM in each case.
For the molecule `N#CC1(C#N)[C@@H]2CCC=C(Sc3ccccc3)[C@@H]21`, the TGI in [1] worked out at 42.4 µM; in [2], 35.4 µM; in [3], 26.5 µM; in experiment [4], 28.9 µM; in experiment [5], 43.7 µM; in experiment [19], 32 µM. For the same molecule, the TGI in experiment [7] was 52.4 µM; in experiment [8], 44.4 µM; in experiment [9] it was 34.8 µM; in experiment [10], 34.7 µM; in [20], 37.6 µM; in experiment [11], 33.1 µM. For the same molecule, the TGI in [12] was 53.6 µM; in [13], 31.2 µM; in [14], 40.4 µM; in experiment [15], 39 µM; in [16], over 100 µM; in [17], 39.8 µM. The TGI in experiment [18] turned out to be 32.8 µM.
Take `CC[C@]1(Cc2ccc(OC)c(OC)c2)C2CC(C(=O)OC)ON2O[C@H](OCc2ccccc2)[C@@H]1OC(C)=O` (stereo not given in full): the TGI in experiment [1], in experiment [2], in experiment [3], in experiment [4], in [5] and in experiment [6] was over 100 µM throughout. Besides, the TGI in experiment [19], in experiment [7], in experiment [8], in experiment [9], in experiment [20] and in [11] was over 100 µM each time. Further, the TGI in experiment [12], in experiment [13], in [14], in experiment [16], in experiment [17] and in [18] was over 100 µM in each case.
On to `O=C(c1ccccc1)N(CCCCNC(=O)C(F)(F)F)CCCNC(=O)C(F)(F)F`, for which the TGI in [1], in [2], in experiment [3], in [4], in experiment [5] and in [19] was over 100 µM in each case. The TGI in experiment [7], in experiment [8], in [9], in experiment [10], in [20] and in experiment [11] was over 100 µM throughout. Also, the TGI in experiment [12], in experiment [13], in experiment [14], in experiment [15], in experiment [16] and in experiment [17] was over 100 µM in each case. The TGI in experiment [18] was over 100 µM.
With `COC(=O)C(CC(C)C)NC(=O)C(CCCN=C(N)N)NC(=O)OCc1ccccc1` (stereo not drawn) (Cbz-Arg-Leu-OMe; configuration not given here), the TGI in [2], in experiment [3], in experiment [4], in [5], in [6] and in [19] was over 100 µM throughout. Further, the TGI in [7], in [8], in [9], in [20], in experiment [11] and in experiment [12] was over 100 µM in each case. Also, the TGI in [13], in experiment [14], in experiment [15], in experiment [16], in experiment [17] and in experiment [18] was over 100 µM in each case.
On to `COC(=O)[C@@H]1C[C@]2(Br)c3ccccc3N(S(=O)(=O)c3ccccc3)[C@@H]2N1C(=O)OC`, for which the TGI was 14.6 µM in [1]; over 100 µM in [2]; over 100 µM in experiment [4]; over 100 µM in experiment [5]; over 100 µM in experiment [6]; over 100 µM in [7]. Further, the TGI in experiment [8], in [9], in [10], in [20], in [11] and in experiment [12] was over 100 µM each time. Further, the TGI in experiment [13], in [14], in experiment [15], in [16] and in experiment [17] was over 100 µM each time.
Regarding `CC(C)=NOC(=O)OC[C@H]1O[C@@H](n2cnc3c(N)ncnc32)C(O)C1O` (stereo not given in full), the TGI in experiment [2], in experiment [3], in experiment [4], in experiment [5], in experiment [6] and in [19] was over 100 µM each time. The TGI in experiment [7], in experiment [8], in experiment [9], in experiment [10], in [11] and in experiment [12] was over 100 µM each time. The TGI in [13], in experiment [14], in experiment [15], in experiment [16], in experiment [17] and in experiment [18] was over 100 µM throughout.
